# System: PBMCs
# Assay: LPS-induced TNFα/IL-8 release in PBMC cells
# Format: cell-based
# Settings: Homo sapiens, assay (b), read-out: IC50 Values for Inhibition of Cytokine Release PBMCs IL-8
# Protocol: Peripheral blood mononuclear cells (PBMCs) from healthy subjects are separated from whole blood using a density gradient (Lymphoprep, Axis-Shield Healthcare). The PBMCs are seeded in 96 well plates and treated with compounds at the desired concentration for 2 hours before addition of 1 ng/mL LPS (Escherichia Coli 0111:B4 from Sigma Aldrich) for 24 hours under normal tissue culture conditions (37° C., 5% CO2). The supernatant is harvested for determination of IL-8 and TNFα concentrations by sandwich ELISA (Duo-set, R&D systems) and read on the fluorescence microplate reader (Varioskan® Flash, ThermoFisher Scientific).
row,Structure (SMILES),IC50 [nM]
1,"COc1cc(Nc2cc(Oc3ccc(NC(=O)Nc4cc(C(C)(C)C)cc(NS(C)(=O)=O)c4OC)c4ccccc34)ccn2)cc(C(=O)NCCN2CCCC2)c1 [83(d), 3-((4-((4-(3-(5-(tert-butyl)-2-methoxy-3-(methylsulfonamido)phenyl)ureido)naphthalen-1-yl)oxy)pyridin-2-yl)amino)-5-methoxy-N-(2-(pyrrolidin-1-yl)ethyl)benzamide]",12.1
2,"COc1cc(Nc2cc(Oc3ccc(NC(=O)Nc4cc(C(C)(C)C)cc(NS(C)(=O)=O)c4OC)c4ccccc34)ccn2)cc(C(=O)NCCN2CCCCC2)c1 [83(e), 3-((4-((4-(3-(5-(tert-butyl)-2-methoxy-3-(methylsulfonamido)phenyl)ureido)naphthalen-1-yl)oxy)pyridin-2-yl)amino)-5-methoxy-N-(2-(piperidin-1-yl)ethyl)benzamide]",8
3,"COc1c(NC(=O)Nc2ccc(Oc3ccnc(Nc4ccccc4)c3)c3ccccc23)cc(C(C)(C)C)cc1NS(=O)(=O)N1CCOCC1 [83(f), N-(5-(tert-butyl)-2-methoxy-3-(3-(4-((2-(phenylamino)pyridin-4-yl)oxy)naphthalen-1-yl)ureido)phenyl)morpholine-4-sulfonamide]",13.1
4,"COCCOCCOCCOc1cc(Nc2cc(Oc3ccc(NC(=O)Nc4cc(C(C)(C)C)cc(C(=O)NCCN)c4OC)c4ccccc34)ccn2)cc(OC)c1 [83(g), N-(2-aminoethyl)-5-(tert-butyl)-2-methoxy-3-(3-(4-((2-((3-methoxy-5-(2-(2-(2-methoxy-ethoxy)ethoxy)ethoxy)phenyl)amino)pyridin-4-yl)oxy)naphthalen-1-yl)ureido)benzamide]",7.3
5,"COc1c(NC(=O)Nc2ccc(Oc3ccnc(Nc4ccccc4)c3)c3ccccc23)cc(C(C)(C)C)cc1C(=O)NC1CCOCC1 [84(a), 3-[[4-[(2-Anilino-4-pyridyl)oxy]-1-naphthyl]carbamoylamino]-5-tert-butyl-2-methoxy-N-tetrahydropyran-4-yl-benzamide]",12.4
6,"COc1c(NC(=O)Nc2ccc(Oc3ccnc(Nc4ccccc4)c3)c3ccccc23)cc(C(C)(C)C)cc1C(=O)NC1CCN(C)CC1 [84(b), 3-[[4-[(2-Anilino-4-pyridyl)oxy]-1-naphthyl]carbamoylamino]-5-tert-butyl-2-methoxy-N-(1-methyl-4-piperidyl)benzamide]",9.1
7,"COc1c(NC(=O)Nc2ccc(Oc3ccnc(Nc4ccccc4)c3)c3ccccc23)cc(C(C)(C)C)cc1C(=O)N[C@@H]1CCOC1 [84(c), 3-[[4-[(2-Anilino-4-pyridyl)oxy]-1-naphthyl]carbamoylamino]-5-tert-butyl-2-methoxy-N-[(3R)-tetrahydrofuran-3-yl]benzamide]",21.8
8,"COc1cc(Nc2cc(Oc3ccc(NC(=O)Nc4cc(C(C)(C)C)cc(NS(C)(=O)=O)c4OC)c4ccccc34)ccn2)cc(OCCOCCOCCO)c1 [84(e), 1-[5-tert-Butyl-3-(methanesulfonamido)-2-methoxy-phenyl]-3-[4-[[2-[3-[2-[2-(2-hydroxyethoxy)ethoxy]ethoxy]-5-methoxy-anilino]-4-pyridyl]oxy]-1-naphthyl]urea]",1.3
9,"COc1cc(CO)cc(Nc2cc(Oc3ccc(NC(=O)Nc4cc(C(C)(C)C)cc(NS(C)(=O)=O)c4OC)c4ccccc34)ccn2)c1 [84(f), 1-[5-tert-Butyl-3-(methanesulfonamido)-2-methoxyphenyl]-3-[4-[[2-[3-(hydroxymethyl)-5-methoxyanilino]-4-pyridyl]oxy]-naphthyl]urea]",13.5
10,"C#Cc1cc(Nc2cc(Oc3ccc(NC(=O)Nc4cc(C(C)(C)C)cc(NS(C)(=O)=O)c4OC)c4ccccc34)ccn2)cc(C(=O)NCCN2CCN(C)CC2)c1 [85(c), 3-[[4-[[4-[[5-tert-Butyl-3-(methanesulfonamido)-2-methoxyphenyl]-carbamoylaminol]-1-naphthyl]oxy]-2-pyridyl]amino]-5-ethynyl-N-[2-(4-methylpiperazin-1-yl)ethyl]benzamide]",4.6
11,"COc1cc(Nc2nccc(Oc3ccc(NC(=O)Nc4cc(C(C)(C)C)cc(NS(C)(=O)=O)c4OC)c4ccccc34)n2)cc(C(=O)NCCN2CCN(C)CC2)c1 [85(e), 3-[[4-[[4-[[5-tert-Butyl-3-(methanesulfonamido)-2-methoxyphenyl]-carbamoylamino]-1-naphthyl]oxy]pyrimidin-2-yl]amino]-5-methoxy-N-[2-(4-methylpiperazin-1-yl)ethyl]benzamide]",1.7
12,"COc1cc(Nc2nccc(Oc3ccc(NC(=O)Nc4cc(C(C)(C)C)cc(NS(C)(=O)=O)c4OC)c4ccccc34)n2)cc(C(=O)NCCCN2CCOCC2)c1 [85(f), 3-[[4-[[4-[[5-tert-Butyl-3-(methanesulfonamido)-2-methoxyphenyl]-carbamoylamino]-1-naphthyl]oxy]pyrimidin-2-yl]amino]-5-methoxy-N-(3-morpholinopropyl)-benzamide]",0.7
13,"C#Cc1cc(Nc2nccc(Oc3ccc(NC(=O)Nc4cc(C(C)(C)C)cc(C(N)=O)c4OC)c4ccccc34)n2)cc(C(=O)NCCN2CCOCC2)c1 [85(g), 5-tert-Butyl-3-[[4-[2-[3-ethynyl-5-(2-morpholinoethylcarbamoyl)anilino]-pyrimidin-4-yl]oxy-1-naphthyl]carbamoylamino]-2-methoxy-benzamide]",1
14,"COc1cc(Nc2cc(Oc3ccc(NC(=O)Nc4cc(C(C)(C)C)cc(NS(C)(=O)=O)c4OC)c4ccccc34)ccn2)cc(C(=O)NCCN2CCSCC2)c1 [85(i), 3-[[4-[[4-[[5-tert-Butyl-3-(methanesulfonamido)-2-methoxyphenyl]-carbamoylamino]-1-naphthyl]oxy]-2-pyridyl]amino]-5-methoxy-N-(2-thiomorpholinoethyl)-benzamide]",1.5
15,"COc1cc(Nc2cc(Oc3ccc(NC(=O)Nc4cc(C(C)(C)C)cc(NS(C)(=O)=O)c4OC)c4ccccc34)ccn2)cc(C(=O)NCCN2CC[S+]([O-])CC2)c1 [85(j), 3-[[4-[[4-[[5-tert-Butyl-3-(methanesulfonamido)-2-methoxyphenyl]-carbamoylamino]-1-naphthyl]oxy]-2-pyridyl]amino]-5-methoxy-N-[2-(1-oxo-1,4-thiazinan-4-yl)ethyl]benzamide]",2.1
16,"COc1cc(Nc2cc(Oc3ccc(NC(=O)Nc4cc(C(C)(C)C)cc(NS(C)(=O)=O)c4OC)c4ccccc34)ccn2)cc(C(=O)NCCN2CCOCC2(C)C)c1 [85(l), 3-[[4-[[4-[[5-tert-Butyl-3-(methanesulfonamido)-2-methoxyphenyl]-carbamoylamino]-1-naphthyl]oxy]-2-pyridyl]amino]-N-[2-(3,3-dimethylmorpholin-4-yl)ethyl]-5-methoxybenzamide]",2.8
17,"COc1cc(Nc2cc(Oc3ccc(NC(=O)Nc4cc(C(C)(C)C)cc(NS(C)(=O)=O)c4OC)c4ccccc34)ccn2)cc(C(=O)NCCN2CCCN(C)CC2)c1 [85(p), 3-[[4-[[4-[[5-tert-Butyl-3-(methanesulfonamido)-2-methoxyphenyl]-carbamoylamino]-1-naphthyl]oxy]-2-pyridyl]amino]-5-methoxy-N-[2-(4-methyl-1,4-diazepan-1-yl)ethyl]benzamide]",7.1
18,"COc1cc(Nc2cc(Oc3ccc(NC(=O)Nc4cc(C(C)(C)C)cc(NS(C)(=O)=O)c4OC)c4ccccc34)ccn2)cc(C(=O)NCCN2CCNCC2)c1 [85(q), 3-[[4-[[4-[[5-tert-Butyl-3-(methanesulfonamido)-2-methoxyphenyl]-carbamoylamino]-1-naphthyl]oxy]-2-pyridyl]amino]-5-methoxy-N-(2-piperazin-1-ylethyl)benzamide]",6.1
19,"COc1cc(Nc2cc(Oc3ccc(NC(=O)Nc4cc(C(C)(C)C)cc(NS(C)(=O)=O)c4OC)c4ccccc34)ccn2)cc(C(=O)NCCOCCOCCO)c1 [85(r), 3-[[4-[[4-[[5-tert-Butyl-3-(methanesulfonamido)-2-methoxyphenyl]-carbamoylamino]-1-naphthyl]oxy]-2-pyridyl]amino]-N-[2-[2-(2-hydroxyethoxy)ethoxy]-ethyl]-5-methoxy-benzamide]",0.6
20,"COCCOCCOCCOCCNC(=O)c1cc(Nc2cc(Oc3ccc(NC(=O)Nc4cc(C(C)(C)C)cc(NS(C)(=O)=O)c4OC)c4ccccc34)ccn2)cc(OC)c1 [85(v), 3-[[4-[[4-[[5-tert-Butyl-3-(methanesulfonamido)-2-methoxyphenyl]-carbamoylamino]-1-naphthyl]oxy]-2-pyridyl]amino]-5-methoxy-N-[2-[2-[2-(2-methoxyethoxy)ethoxy]ethoxy]-ethyl]benzamide]",0.4
21,"COc1cc(Nc2cc(Oc3ccc(NC(=O)Nc4cc(C(C)(C)C)cc(NS(C)(=O)=O)c4OC)c4ccccc34)ccn2)cc(C(=O)NCCN2CCC(O)CC2)c1 [85(w), 3-[[4-[[4-[[5-tert-Butyl-3-(methanesulfonamido)-2-methoxyphenyl]-carbamoylamino]-1-naphthyl]oxy]-2-pyridyl]amino]-N-[2-(4-hydroxy-1-piperidyl)ethyl]-5-methoxybenzamide]",2.9
22,"COCCOCCOCC[S+]([O-])c1cc(Nc2cc(Oc3ccc(NC(=O)Nc4cc(C(C)(C)C)cc(NS(C)(=O)=O)c4OC)c4ccccc34)ccn2)cc(OC)c1 (centres unmarked) [85(x), 1-[5-tert-Butyl-3-(methanesulfonamido)-2-methoxyphenyl]-3-[4-[2-[3-methoxy-5-[2-[2-(2-methoxyethoxy)ethoxy]ethylsulfinyl]anilino]pyridin-4-yl]oxy-1-naphthyl]urea]",0.9
23,"COCCOCCOCCNC(=O)c1cc(Nc2nccc(Oc3ccc(NC(=O)Nc4cc(C(C)(C)C)cc(NS(C)(=O)=O)c4OC)c4ccccc34)n2)cc(OC)c1 [Example 7, 3-((4-((4-(3-(5-(tert-Butyl)-2-methoxy-3-(methylsulfonamido)phenyl)ureido)naphthalen-1-yl)oxy)pyrimidin-2-yl)amino)-5-methoxy-N-(2-(2-(2-methoxyethoxy)ethoxy)ethyl)-benzamide]",1.1

# Source: patent publication US10435361B2, “Kinase inhibitors” (Topivert Pharma Limited, priority 2013, dated 2019)
